Our source for the IC50 values is patent US20240279207A1, “SUBSTITUTED ACYL SULFONAMIDES FOR TREATING CANCER” (The Broad Institute, Inc., priority 2020, published 2024).

The test system of experiment [1] is ESR1 transcription in MVLN cells. Kind of experiment: MVLN reporter assay: repression of ESR1 transcription (luciferase signal). It is filed as cell-based. The note with it: Homo sapiens, MVLN, 24 h, luciferase signal after 24 h, read-out: MVLN reporter assay, IC50 [M] (arithmetic mean). The gist of the method: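 To control for cell loss, Alamar Blue (2 h, 530/590 nm) precedes the 24 h luciferase measurement. The reporter is an ERE from the Xenopus vitellogenin A2 gene driving luciferase, stably transfected into ER-expressing MVLN cells; duplicate samples.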
For orientation: Reporter assays use an easily measured gene product as a stand-in for the process of interest.

In experiment [2] the target is T1, Recombinant human His-tagged Kat6a protein (amino acids 194-810) (Homo sapiens, UniProt Q92794).
T1 construct: Kat6a protein (amino acids 194-810); His
T1 sequence (Q92794 194-810): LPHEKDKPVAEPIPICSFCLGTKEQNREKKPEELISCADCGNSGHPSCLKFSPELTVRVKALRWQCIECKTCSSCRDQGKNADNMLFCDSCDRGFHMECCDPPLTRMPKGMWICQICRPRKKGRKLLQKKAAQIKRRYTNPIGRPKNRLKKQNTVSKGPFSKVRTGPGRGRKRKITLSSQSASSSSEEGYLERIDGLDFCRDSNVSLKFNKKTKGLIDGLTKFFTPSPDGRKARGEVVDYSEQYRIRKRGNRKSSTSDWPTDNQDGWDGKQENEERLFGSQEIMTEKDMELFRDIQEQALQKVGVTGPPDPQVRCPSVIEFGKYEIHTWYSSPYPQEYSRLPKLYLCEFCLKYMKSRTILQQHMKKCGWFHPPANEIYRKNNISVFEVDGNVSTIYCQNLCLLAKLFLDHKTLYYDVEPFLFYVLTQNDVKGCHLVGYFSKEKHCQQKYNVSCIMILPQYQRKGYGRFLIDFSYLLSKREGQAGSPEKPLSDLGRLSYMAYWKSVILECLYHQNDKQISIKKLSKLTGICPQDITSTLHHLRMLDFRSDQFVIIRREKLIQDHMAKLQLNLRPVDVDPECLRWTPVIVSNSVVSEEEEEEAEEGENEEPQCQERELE
Nature of the experiment: Kat6a activity assay (TR-FRET, acetylation of Histone-H4-derived peptide). It is filed as biochemical. The following applies: 60 mins at 22° C., 220 nM H4 peptide, 600 nM Acetyl Coenzyme A, read-out: KAT6A - DPF/HAT domain IC50 [mol/l] (arithmetic mean).

`COCCOc1ccc(Cl)c(S(=O)(=O)NC(=O)c2cc3c(F)cc(N4CCC4)cc3o2)c1` [Example 59, 6-(Azetidin-1-yl)-N-[2-chloro-5-(2-methoxyethoxy)benzene-1-sulfonyl]-4-fluoro-1-benzofuran-2-carboxamide]: the IC50 in experiment [1] was 4.29e-06 M; in experiment [2], 208 nM.
The matching figures for `Cc1cc(C(C)(C)C)cc(S(=O)(=O)NC(=O)c2cc3c(F)cc(N4CCC4)cc3o2)c1C` [Example 189, 6-(Azetidin-1-yl)-N-(5-tert-butyl-2,3-dimethylbenzene-1-sulfonyl)-4-fluoro-1-benzofuran-2-carboxamide]: 1.3e-07 M and 8.59 nM.
Taken in the same sequence, the figures for `Cc1ccc(OC2CCCC2)c(S(=O)(=O)NC(=O)c2cc3c(F)cc(N4CCC4)cc3o2)c1` [Example 9, 6-(Azetidin-1-yl)-N-[2-(cyclopentyloxy)-5-methylbenzene-1-sulfonyl]-4-fluoro-1-benzofuran-2-carboxamide] were 1.34e-07 M and 21.2 nM.
Turning to `Cc1cccc(C2CCCC2)c1S(=O)(=O)NC(=O)c1cc2c(F)cc(N3CCC3)cc2o1` [Example 61, 6-(Azetidin-1-yl)-N-(2-cyclopentyl-6-methylbenzene-1-sulfonyl)-4-fluoro-1-benzofuran-2-carboxamide], the results for the IC50 in experiment [1] and in experiment [2] were 5.6e-06 M and 399 nM, respectively.
Taken in the same sequence, the figures for `O=C(NS(=O)(=O)c1cc(C(F)(F)F)cnc1Cl)c1cc2c(F)cc(N3CCC3)cc2o1` [Example 103, 6-(Azetidin-1-yl)-N-[2-chloro-5-(trifluoromethyl)pyridine-3-sulfonyl]-4-fluoro-1-benzofuran-2-carboxamide] were 1.02e-05 M and 613 nM.
Taken in the same sequence, the figures for `CCS(=O)(=O)c1ccccc1S(=O)(=O)NC(=O)c1cc2c(F)cc(N3CCC3)cc2o1` [Example 77, 6-(Azetidin-1-yl)-N-[2-(ethanesulfonyl)benzene-1-sulfonyl]-4-fluoro-1-benzofuran-2-carboxamide] were 3.45e-06 M and 207 nM.
Taken in the same sequence, the figures for `Cn1ccc2cccc(S(=O)(=O)NC(=O)c3cc4c(F)cc(N5CCC5)cc4o3)c21` [Example 41, 6-(Azetidin-1-yl)-4-fluoro-N-(1-methyl-1H-indole-7-sulfonyl)-1-benzofuran-2-carboxamide] were 8.57e-07 M and 90.1 nM.
Turning to `O=C(NS(=O)(=O)c1c(F)cccc1C1CCC1)c1cc2c(F)cc(N3CCC3)cc2o1` [Example 24, 6-(Azetidin-1-yl)-N-(2-cyclobutyl-6-fluorobenzene-1-sulfonyl)-4-fluoro-1-benzofuran-2-carboxamide], the IC50 is 3e-07 M in experiment [1] and 46.7 nM in experiment [2].
In the case of `O=C(NS(=O)(=O)c1c(F)cccc1OC1CCC1)c1cc2c(F)cc(N3CCC3)cc2o1` [Example 16, 6-(Azetidin-1-yl)-N-[2-(cyclobutyloxy)-6-fluorobenzene-1-sulfonyl]-4-fluoro-1-benzofuran-2-carboxamide], the IC50 in experiment [1] amounted to 1.69e-07 M; in experiment [2] it was 43.5 nM.
Taken in the same sequence, the figures for `Cc1cccc(OC(C)C)c1S(=O)(=O)NC(=O)c1cc2c(F)cc(N3CCC3)cc2o1` [Example 86, 6-(Azetidin-1-yl)-4-fluoro-N-{2-methyl-6-[(propan-2-yl)oxy]benzene-1-sulfonyl}-1-benzofuran-2-carboxamide] were 3.33e-07 M and 54.8 nM.
Taken in the same sequence, the figures for `CC(O)c1ccc(Cl)c(S(=O)(=O)NC(=O)c2cc3c(F)cc(N4CCC4)cc3o2)c1` (racemic) [Example 100, 6-(Azetidin-1-yl)-N-[2-chloro-5-(1-hydroxyethyl)benzene-1-sulfonyl]-4-fluoro-1-benzofuran-2-carboxamide (rac)] were 1.29e-06 M and 139 nM.
As for `CCC(=O)Nc1cccc2c(S(=O)(=O)NC(=O)c3cc4c(F)cc(N5CCC5)cc4o3)cccc12` [Example 89, 6-(Azetidin-1-yl)-4-fluoro-N-(5-propanamidonaphthalene-1-sulfonyl)-1-benzofuran-2-carboxamide], the IC50 in experiment [1] was more than 2e-05 M; in experiment [2] it was 269 nM.
For the compound `Cc1cc(S(=O)(=O)NC(=O)c2cc3c(F)cc(N4CCC4)cc3o2)c2ncccc2c1` [Example 175, 6-(Azetidin-1-yl)-4-fluoro-N-(6-methylquinoline-8-sulfonyl)-1-benzofuran-2-carboxamide], the IC50 came out at 1.65e-07 M in experiment [1] and 44.9 nM in experiment [2].
Take `Cc1cnc(Cl)c(S(=O)(=O)NC(=O)c2cc3c(F)cc(N4CCC4)cc3o2)c1` [Example 60, 6-(Azetidin-1-yl)-N-(2-chloro-5-methylpyridine-3-sulfonyl)-4-fluoro-1-benzofuran-2-carboxamide]: the IC50 in experiment [1] worked out at 5.29e-06 M; in experiment [2], 476 nM.
Taken in the same sequence, the figures for `O=C(NS(=O)(=O)c1cnc2ccccn12)c1cc2c(F)cc(N3CCC3)cc2o1` [Example 186, 6-(Azetidin-1-yl)-4-fluoro-N-(imidazo[1,2-a]pyridine-3-sulfonyl)-1-benzofuran-2-carboxamide] were 1.7e-05 M and 1630 nM.
The matching figures for `O=C(NS(=O)(=O)c1c(Cl)ccc2c1OC(F)(F)O2)c1cc2c(F)cc(N3CCC3)cc2o1` [Example 142, 6-(Azetidin-1-yl)-N-(5-chloro-2,2-difluoro-2H-1,3-benzodioxole-4-sulfonyl)-4-fluoro-1-benzofuran-2-carboxamide]: 1.2e-06 M and 149 nM.
The matching figures for `CC(C)Nc1ccc(Cl)cc1S(=O)(=O)NC(=O)c1cc2c(F)cc(N3CCC3)cc2o1` [Example 49, 6-(Azetidin-1-yl)-N-{5-chloro-2-[(propan-2-yl)amino]benzene-1-sulfonyl}-4-fluoro-1-benzofuran-2-carboxamide]: 1.41e-06 M and 67.3 nM.
`COc1ccc2snnc2c1S(=O)(=O)NC(=O)c1cc2c(F)cc(N3CCC3)cc2o1` [Example 182, 6-(Azetidin-1-yl)-4-fluoro-N-(5-methoxy-1,2,3-benzothiadiazole-4-sulfonyl)-1-benzofuran-2-carboxamide]: the IC50 came to 8.48e-07 M in experiment [1] and 55.1 nM in experiment [2].
Take `O=C(NS(=O)(=O)c1ccccc1C(=O)N1CCOCC1)c1cc2c(F)cc(N3CCC3)cc2o1` [Example 73, 6-(Azetidin-1-yl)-4-fluoro-N-[2-(morpholine-4-carbonyl)benzene-1-sulfonyl]-1-benzofuran-2-carboxamide]: the IC50 in experiment [1] is 2.56e-06 M; in experiment [2] it was 105 nM.
Taken in the same sequence, the figures for `CN(C)S(=O)(=O)c1ccc(Cl)c(S(=O)(=O)NC(=O)c2cc3c(F)cc(N4CCC4)cc3o2)c1` [Example 72, 6-(Azetidin-1-yl)-N-[2-chloro-5-(dimethylsulfamoyl)benzene-1-sulfonyl]-4-fluoro-1-benzofuran-2-carboxamide] were 1.89e-05 M and 159 nM.
Take `CCNc1ccccc1S(=O)(=O)NC(=O)c1cc2c(F)cc(N3CCC3)cc2o1` [Example 46, 6-(azetidin-1-yl)-N-[2-(ethylamino)benzene-1-sulfonyl]-4-fluoro-1-benzofuran-2-carboxamide]: the IC50 in experiment [1] is 1.15e-06 M; in experiment [2] it was 122 nM.
The matching figures for `O=C(NS(=O)(=O)c1c(F)cccc1NC1CC1)c1cc2c(F)cc(N3CCC3)cc2o1` [Example 50, 6-(Azetidin-1-yl)-N-[2-(cyclopropylamino)-6-fluorobenzene-1-sulfonyl]-4-fluoro-1-benzofuran-2-carboxamide]: 1.42e-06 M and 98.7 nM.
The matching figures for `CN(C)c1ccc(Cl)c(S(=O)(=O)NC(=O)c2cc3c(F)cc(N4CCC4)cc3o2)c1` [Example 97, 6-(Azetidin-1-yl)-N-[2-chloro-5-(dimethylamino)benzene-1-sulfonyl]-4-fluoro-1-benzofuran-2-carboxamide]: more than 2e-05 M and 14000 nM.
Turning to `Cc1cncc2cccc(S(=O)(=O)NC(=O)c3cc4c(F)cc(N5CCC5)cc4o3)c12` [Example 193, 6-(Azetidin-1-yl)-4-fluoro-N-(4-methylisoquinoline-5-sulfonyl)-1-benzofuran-2-carboxamide], the IC50 is more than 2e-05 M in experiment [1] and 4820 nM in experiment [2].
Taken in the same sequence, the figures for `O=C(NS(=O)(=O)c1cc(Br)cc2c1OCC2)c1cc2c(F)cc(N3CCC3)cc2o1` [Example 177, 6-(Azetidin-1-yl)-N-(5-bromo-2,3-dihydro-1-benzofuran-7-sulfonyl)-4-fluoro-1-benzofuran-2-carboxamide] were 2.24e-07 M and 21.4 nM.
The matching figures for `COc1cccc2c(S(=O)(=O)NC(=O)c3cc4c(F)cc(N5CCC5)cc4o3)cccc12` [Example 65, 6-(Azetidin-1-yl)-4-fluoro-N-(5-methoxynaphthalene-1-sulfonyl)-1-benzofuran-2-carboxamide]: 8.32e-06 M and 57.1 nM.
Regarding `CCOCc1ccc(Cl)c(S(=O)(=O)NC(=O)c2cc3c(F)cc(N4CCC4)cc3o2)c1` [Example 54, 6-(Azetidin-1-yl)-N-[2-chloro-5-(ethoxymethyl)benzene-1-sulfonyl]-4-fluoro-1-benzofuran-2-carboxamide], the values for the IC50 in experiment [1] and in experiment [2] were 1.72e-06 M and 135 nM, respectively.
The matching figures for `CC(C)Oc1cccc(C(F)(F)F)c1S(=O)(=O)NC(=O)c1cc2c(F)cc(N3CCC3)cc2o1` [Example 28, 6-(Azetidin-1-yl)-4-fluoro-N-{2-[(propan-2-yl)oxy]-6-(trifluoromethyl)benzene-1-sulfonyl}-1-benzofuran-2-carboxamide]: 3.56e-07 M and 136 nM.
